In brackets after ≈: the same amount, converted by molar mass. Where two headings read alike, the source gives them in different places.
Experiments:
PANC-1 cells = test: MTT cell viability analysis, single agents, PANC-1; format: cell-based, human
Procedure: (§1) In this example, the effects of the compound of the present invention and different anticancer medicaments on killing cancer cells were studied by MTT (Thiazolyl Blue tetrazolium bromide, 3-[4,5-dimethylthiahiazo-2-yl]-[…] bromide) cell viability analysis.
(§2) Thereafter, each of the aforesaid cell lines was cultured with cell medium containing gemcitabine, cisplatin, 5-fluorouracil, irinotecan, oxaliplatin, paclitaxel, (Z)-n-butylidenephthalide, (E)-n-butylidenephthalide, 2-pentanolybenzoic acid, sodium 2-pentanoylbenzoate, and butylphthalide, for 24 hours, 48 hours and 72 hours, respectively.

Mia-PaCa2 cells = test: MTT cell viability analysis, single agents, Mia-PaCa2; format: cell-based, human
Procedure: as §1, §2

AsPC-1 cells = test: MTT cell viability analysis, single agents, AsPC-1; format: cell-based, human
Procedure: as §1, §2

Panc02 cells = test: MTT cell viability analysis, single agents, Panc02; format: cell-based, mouse
Procedure: as §1, §2

A549 cell = test: MTT cell viability analysis, single agents, A549; format: cell-based; conditions: Homo sapiens, cultured 24, 48 and 72 hours (time of IC50 not given), read-out: IC50
Procedure: as §1
(§3) Thereafter, each of the aforesaid cell lines were cultured with cell medium containing 5-fluorouracil, (Z)-n-butylidenephthalide, and 2-pentanolybenzoic acid for 24 hours, 48 hours and 72 hours.

HepG2 cell = test: MTT cell viability analysis, single agents, HepG2; format: cell-based; conditions: Homo sapiens, cultured 24, 48 and 72 hours (time of IC50 not given), read-out: IC50
Procedure: as §1, §3

HT-29 cell = test: MTT cell viability analysis, single agents, HT-29; format: cell-based; conditions: Homo sapiens, cultured 24, 48 and 72 hours (time of IC50 not given), read-out: IC50
Procedure: as §1, §3

DBTRG-05MG cell = test: MTT cell viability analysis, single agents, DBTRG-05MG; format: cell-based; conditions: Homo sapiens, cultured 24, 48 and 72 hours (time of IC50 not given), read-out: IC50
Procedure: as §1, §3

[1] = Homo sapiens, MTT, cultured 24, 48 and 72 hours (time of IC50 not given), read-out: IC50
[2] = Homo sapiens, MIA PaCa-2, Mia-PaCa2, MTT, cultured 24, 48 and 72 hours (time of IC50 not given), read-out: IC50
[3] = Homo sapiens, ASPC1, AsPC-1, MTT, cultured 24, 48 and 72 hours (time of IC50 not given), read-out: IC50
[4] = Mus musculus, MTT, cultured 24, 48 and 72 hours (time of IC50 not given), read-out: IC50
[5] = MTT, cultured 24, 48 and 72 hours (time of IC50 not given)

Compound | IC50 (PANC-1 cells; [1]) [µg/mL] | IC50 (Mia-PaCa2 cells; [2]) [µg/mL] | IC50 (AsPC-1 cells; [3]) [µg/mL] | IC50 (Panc02 cells; [4]) [µg/mL] | further results
CCC/C=C1/OC(=O)c2ccccc21 [(E)-n-butylidenephthalide] | – | – | – | – | IC50 (PANC-1 cells; Homo sapiens): 779 ± 26.9 µg/mL (≈ 4140 µM); IC50 (Mia-PaCa2 cells; Homo sapiens, MIA PaCa-2): 629 ± 16.5 µg/mL (≈ 3340 µM); IC50 (AsPC-1 cells; Homo sapiens, ASPC1): 131 ± 43.3 µg/mL (≈ 697 µM); IC50 (Panc02 cells; Mus musculus): 514 ± 9.21 µg/mL (≈ 2730 µM)
CCc1c2c(nc3ccc(OC(=O)N4CCC(N5CCCCC5)CC4)cc13)-c1cc3c(c(=O)n1C2)COC(=O)[C@]3(O)CC [irinotecan, Irinotecan] | 38.5 ± 1.08 (≈ 65.5 µM) | 21.7 ± 0.82 (≈ 36.9 µM) | 54.4 ± 2.13 (≈ 92.7 µM) | 69.5 ± 1.01 (≈ 118 µM) | –
N.N.[Cl][Pt][Cl] [cisplatin, Cisplatin] | – | – | – | – | IC50 (PANC-1 cells; [5]): 35.87 ± 1.23 µg/mL; IC50 (Mia-PaCa2 cells; Mia-PaCa2, MTT, cultured 24, 48 and 72 hours (time of IC50 not given)): 32.86 ± 1.08 µg/mL; IC50 (AsPC-1 cells; AsPC-1, MTT, cultured 24, 48 and 72 hours (time of IC50 not given)): 21.56 ± 1.05 µg/mL; IC50 (Panc02 cells; [5]): 53.36 ± 1.74 µg/mL
CCCCC(=O)c1ccccc1C(=O)[O-].[Na+] [sodium 2-pentanoylbenzoate, Sodium 2-pentanoylbenzoate] | 687 ± 27.1 | 469 ± 18.6 | 624 ± 49.6 | 750 ± 28.7 | –
O=c1[nH]cc(F)c(=O)[nH]1 [5-fluorouracil, reference compound] | 8.45 ± 0.35 (≈ 65 µM) | 4.9 ± 0.27 (≈ 37.7 µM) | 25.4 ± 3.91 (≈ 195 µM) | 0.0673 (≈ 0.517 µM) | IC50 (A549 cell): 8.55 ± 0.22 µg/mL (≈ 65.7 µM); IC50 (HepG2 cell): 4.44 ± 0.25 µg/mL (≈ 34.1 µM); IC50 (HT-29 cell): 20.8 ± 0.91 µg/mL (≈ 160 µM); IC50 (DBTRG-05MG cell): 55.5 ± 6.1 µg/mL (≈ 426 µM)

— patent US20230092846A1, “COMBINATION FOR THE TREATMENT OF CANCER AND APPLICATION THEREOF” (EVERFRONT BIOTECH INC., priority 2020, published 2023)
